Our source for the IC50 values is article PMC6259569, “Pancreatic Lipase Inhibition by C-Glycosidic Flavones Isolated from Eremochloa ophiuroides” (Molecules, 2010).

The assay addresses T1, porcine pancreatic lipase (Sus scrofa, UniProt P00591).
T1 construct: purchased Sigma, St. Louis, MO
T1 sequence (P00591 1-450): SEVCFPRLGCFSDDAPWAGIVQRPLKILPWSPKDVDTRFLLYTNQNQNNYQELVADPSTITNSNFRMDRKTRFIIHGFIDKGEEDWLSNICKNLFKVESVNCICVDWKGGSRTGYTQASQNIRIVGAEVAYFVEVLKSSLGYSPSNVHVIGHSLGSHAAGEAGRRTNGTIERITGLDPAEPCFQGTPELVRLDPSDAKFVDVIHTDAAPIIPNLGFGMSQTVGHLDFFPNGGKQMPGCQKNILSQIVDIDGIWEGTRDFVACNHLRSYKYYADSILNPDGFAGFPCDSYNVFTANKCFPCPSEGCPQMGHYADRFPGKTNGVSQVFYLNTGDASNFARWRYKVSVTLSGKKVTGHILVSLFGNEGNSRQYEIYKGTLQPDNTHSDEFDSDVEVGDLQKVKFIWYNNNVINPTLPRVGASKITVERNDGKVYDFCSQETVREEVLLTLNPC
Briefly: Pancreatic lipase inhibition assay (p-NPB hydrolysis, OD 405 nm). To be noted: substrate p-NPB, 37 °C, mean ± S.D. of quadruplicate experiments, read-out: IC50, pancreatic lipase inhibitory activity (concentration that caused a 50% reduction in enzyme activity). The class given is biochemical. As to the method:
The ability of the compounds to inhibit porcine pancreatic lipase was evaluated using previously reported methods with a minor modification. Briefly, an enzyme buffer was prepared by the addition of 30 μL (10 units) of a solution of porcine pancreatic lipase (Sigma, St. Louis, MO) in10 mM MOPS (morpholinepropanesulphonic acid), and 1 mM EDTA, pH 6.8 to 850 μL of Tris buffer (100 mM Tris-HC1 and 5 mM CaCl2, pH 7.0). […] Pancreatic lipase activity was determined by measuring the hydrolysis of p-NPB to p-nitrophenol at 405 nm using an ELISA reader (Tecan, Infinite F200, Austria). Inhibition of lipase activity was expressed as the percentage decrease in the OD when porcine pancreatic lipase was incubated with the test compounds.
For `O=C(/C=C/c1ccc(O)c(O)c1)O[C@@H]1C[C@](O)(C(=O)O)C[C@@H](O)[C@H]1O` [Compound 7, chlorogenic acid], the IC50 was greater than 200 µM.
To `O=C(O)/C=C/c1ccc(O)c(O)c1` [Compound 9, caffeic acid] belongs greater than 200 µM; to `COC(=O)[C@]1(O)C[C@@H](O)[C@@H](O)[C@H](OC(=O)/C=C/c2ccc(O)c(O)c2)C1` [Compound 8, methyl chlorogenate], 33.6 ± 2 µM.
`O=c1cc(-c2ccc(O)c(O)c2)oc2cc(O)cc(O)c12` [Compound 6, luteolin]: the IC50 was greater than 200 µM.
`CC1OC(OC2C(c3c(O)cc4oc(-c5ccc(O)c(O)c5)cc(=O)c4c3O)OC(CO)C(O)C2O)C(O)C(O)C1O` [Compound 5, isoorientin 2-O-α-L-rhamnoside]: the IC50 worked out at 18.5 ± 2.6 µM.
As for `O=c1cc(-c2ccc(O)c(O)c2)oc2cc(O)c([C@@H]3O[C@H](CO)[C@@H](O)[C@H](O)[C@H]3O)c(O)c12` [Compound 3, isoorientin], the figure is 44.6 ± 1.3 µM.
As for `C[C@H]1O[C@@H](c2c(O)cc3oc(-c4ccc(O)c(O)c4)cc(=O)c3c2O)C[C@H](O)[C@H]1O` [Compound 1, luteolin 6-C-β-D-boivinopyranoside], the figure is 50.5 ± 3.9 µM; as for `O=c1cc(-c2ccc(O)c(O)c2)oc2c([C@@H]3O[C@H](CO)[C@@H](O)[C@H](O)[C@H]3O)c(O)cc(O)c12` [Compound 2, orientin], 31.6 ± 2.7 µM.
